molecular target: human PDE10A2 (Homo sapiens (Human), UniProt Q9Y233); assay: PDE10 fluorescence polarization (IMAP FP) inhibition assay; assay type: biochemical; conditions: human PDE10A2 from transfected AD293 cells; FAM-labeled cAMP 50 nM; apparent inhibition constant; read-out: PDE10A Ki
Experimental: The activity of the compounds in accordance with the present invention as PDE10 inhibitors may be readily determined without undue experimentation using a fluorescence polarization (FP) methodology that is well known in the art (Huang, W., et al., J. Biomol Screen, 2002, 7: 215).
In a typical experiment the PDE10 inhibitory activity of the compounds of the present invention was determined in accordance with the following experimental method. PDE10A2 was amplified from human fetal brain cDNA (Clontech, Mountain View, Calif.) using a forward primer corresponding to nucleotides 56-77 of human PDE10A2 (Accession No. AF127480, Genbank Identifier 4894716), containing a Kozak consensus sequence, and a reverse primer corresponding to nucleotides 2406-2413 of human PDE10A2 (Accession No. AF127480, Genbank Identifier 4894716). Amplification with Easy-A polymerase (Stratagene, La Jolla, Calif.) was 95° C. for 2 minutes followed by thirty three cycles of 95° C. for 40 seconds, 55° C. for 30 seconds, and 72° C. for 2 minutes 48 seconds. Final extension was 72° C. for 7 minutes. The PCR product was TA cloned into pcDNA3.2-TOPO (Invitrogen, Carlsbad, Calif.) according to standard protocol. AD293 cells with 70-80% confluency were transiently transfected with human PDE10A2/pcDNA3.2-TOPO using Lipofectamine 2000 according to manufacturer specifications (Invitrogen, Carlsbad, Calif.). Cells were harvested 48 hours post-transfection and lysed by sonication (setting 3, 10×5 sec pulses) in a buffer containing 20 mM HEPES, 1 mM EDTA and protease inhibitor cocktail (Roche). Lysate was collected by centrifugation at 75,000×g for 20 minutes. Supernatant containing the cytoplasmic fraction was used for evaluation of PDE10A2 activity. The fluorescence polarization assay for cyclic nucleotide phosphodiesterases was performed using an IMAP® FP kit supplied by Molecular Devices, Sunnyvale, Calif. (product # R8139). IMAP® technology has been applied previously to phosphodiesterase assays (Huang, W., et al., J. Biomol Screen, 2002, 7: 215). Assays were performed at room temperature in 384-well microtiter plates with an incubation volume of 20.2 μL. Solutions of test compounds were prepared in DMSO and serially diluted with DMSO to yield 8 μL of each of 10 solutions differing by 3-fold in concentration, at 32 serial dilutions per plate. […] 0% of inhibition is determined by using DMSO (1% final concentrations).
A Labcyte Echo 555 (Labcyte, Sunnyvale, Calif.) is used to dispense 200 nL from each well of the titration plate to the 384 well assay plate. A solution of enzyme (1/1600 dilution from aliquots; sufficient to produce 20% substrate conversion) and a separate solution of FAM-labeled cAMP PDE from Molecular Devices (product # R7506), at a final concentration of 50 nM are made in the assay buffer (10 mM Tris HCl, pH 7.2, 10 mM MgCl2, 0.05% NaN3 0.01% Tween-20, and 1 mM DTT). The enzyme and the substrate are then added to the assay plates in two consecutive additions of 10 μL, and then shaken to mix. The reaction is allowed to proceed at room temperature for 30 minutes. […] The enzymatic reaction is stopped by addition of 60 μL of the binding solution to each well of the assay plates and the plates are sealed and shaken for 10 seconds. The plate was incubated at room temperature for at least one hour prior to determining the fluorescence polarization (FP). The parallel and perpendicular fluorescence of each well of the plate was measured using a Perkin Elmer EnVision™ plate reader (Waltham, Mass.).
Fluorescence polarization (mP) was calculated from the parallel (S) and perpendicular (P) fluorescence of each sample well and the analogous values for the median control well, containing only substrate (So and Po), using the following equation: Polarization(mP)=1000*(S/So−P/Po)/(S/So+P/Po).
Dose-inhibition profiles for each compound were characterized by fitting the mP data to a four-parameter equation given below.

human PDE10A2, sequence (Q9Y233 267-1055): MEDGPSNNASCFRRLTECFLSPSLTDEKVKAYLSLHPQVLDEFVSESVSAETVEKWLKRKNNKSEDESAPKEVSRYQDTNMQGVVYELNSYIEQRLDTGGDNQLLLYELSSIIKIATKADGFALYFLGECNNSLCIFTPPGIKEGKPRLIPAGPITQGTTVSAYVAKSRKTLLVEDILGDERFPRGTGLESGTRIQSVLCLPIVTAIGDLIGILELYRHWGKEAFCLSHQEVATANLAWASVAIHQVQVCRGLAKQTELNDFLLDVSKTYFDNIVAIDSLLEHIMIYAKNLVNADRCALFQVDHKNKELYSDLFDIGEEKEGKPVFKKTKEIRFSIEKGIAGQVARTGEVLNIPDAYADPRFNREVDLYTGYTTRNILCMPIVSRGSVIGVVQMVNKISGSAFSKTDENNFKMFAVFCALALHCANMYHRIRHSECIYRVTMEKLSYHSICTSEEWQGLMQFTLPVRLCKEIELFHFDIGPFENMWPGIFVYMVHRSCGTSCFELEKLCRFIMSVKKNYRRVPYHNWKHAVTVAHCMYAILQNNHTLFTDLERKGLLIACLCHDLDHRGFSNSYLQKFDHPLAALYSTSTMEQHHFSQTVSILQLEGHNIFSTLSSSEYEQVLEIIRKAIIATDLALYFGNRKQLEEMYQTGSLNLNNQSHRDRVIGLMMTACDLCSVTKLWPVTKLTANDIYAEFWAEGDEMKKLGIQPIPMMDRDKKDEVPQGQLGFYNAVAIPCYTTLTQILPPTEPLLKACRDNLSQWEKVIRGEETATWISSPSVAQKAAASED

**Q.** For `CCOC(=O)c1[nH]nnc1-c1cnc(C)nc1OC[C@H]1C[C@@H]1c1ccc(OC)cn1` [Example 248, ethyl 4-(4-(((1S,2S)-2-(5-methoxypyridin-2-yl)cyclopropyl)methoxy)-2-methylpyrimidin-5-yl)-1H-1,2,3-triazole-5-carboxylate], which Ki is on record?
**A.** 14 nM

**Q.** With `CCc1ccc([C@@H]2C[C@@H]2COc2nc(C)ncc2C2CCC3(CC2)OCCO3)nc1` [Example 194, 4-(((1S,2R)-2-(5-ethylpyridin-2-yl)cyclopropyl)methoxy)-2-methyl-5-(1,4-dioxaspiro[4.5]decan-8-yl)pyrimidine] as the compound, how does the Ki read?
**A.** 2.98 nM

**Q.** With `COc1ccc([C@H]2C[C@@H]2COc2nc(C)ncc2C2CCC3(CC2)OCCO3)nc1` [Example 188, 4-(((1S,2S)-2-(5-methoxypyridin-2-yl)cyclopropyl)methoxy)-2-methyl-5-(1,4-dioxaspiro[4.5]decan-8-yl)pyrimidine] as the compound, how does the Ki read?
**A.** 2.84 nM

**Q.** For `COc1ccc([C@H]2C[C@@H]2COc2nc(C)ncc2C2=CC(=O)CC2)nc1` [Example 77, 3-(4-(((1S,2S)-2-(5-methoxypyridin-2-yl)cyclopropyl)methoxy)-2-methylpyrimidin-5-yl)cyclopent-2-enone], which Ki is on record?
**A.** 6.28 nM

**Q.** With `COc1ccc([C@H]2C[C@@H]2COc2nc(C)ncc2-c2ccc3[nH]ccc3c2)nc1` [Example 90, 5-(4-(((1S,2S)-2-(5-methoxypyridin-2-yl)cyclopropyl)methoxy)-2-methylpyrimidin-5-yl)-1H-indole] as the compound, how does the Ki read?
**A.** 2.13 nM

**Q.** How did the Ki turn out when `COc1ccc([C@H]2C[C@@H]2COc2nc(C)ncc2-c2ccnc(N)c2C#N)nc1` [Example 108, 2-amino-4-(4-(((1S,2S)-2 (5-methoxypyridin-2-yl)cyclopropyl)methoxy)-2-methylpyrimidin-5-yl)nicotinonitrile] was run?
**A.** 3.75 nM

**Q.** `Cc1ccnc(-c2cnc(C)nc2OC[C@H]2C[C@@H]2c2ccc3ccccc3n2)c1` [Example 128, 2-((1S,2S)-2-((2-methyl-5-(4-methylpyridin-2-yl)pyrimidin-4-yloxy)methyl)cyclopropyl)quinoline] was tested. Which Ki did it give?
**A.** 0.12 nM

**Q.** How did the Ki turn out when `Cc1ncc(-c2ccc(CO)cc2)c(OC[C@H]2C[C@@H]2c2ccc3ccccc3n2)n1` (single isomer, unassigned) [Example 38] was run?
**A.** 0.03 nM

**Q.** `CCc1ccc([C@H]2C[C@@H]2COc2nc(C)ncc2-c2ccc(C(C)(C)O)nc2)nc1` (single isomer, unassigned) [Example 181] was tested. Which Ki did it give?
**A.** 0.05 nM

**Q.** With `Cc1ccc([C@H]2C[C@@H]2COc2nc(C)ncc2-c2c(F)cccc2F)nc1` [Example 6, 5-(2,6-difluorophenyl)-2-methyl-4-(((1S,2S)-2-(5-methylpyridin-2-yl)cyclopropyl)methoxy)pyrimidine] as the compound, how does the Ki read?
**A.** 1.42 nM

**Q.** For `COc1ccc([C@H]2C[C@@H]2COc2nc(C)ncc2-c2ccc(-c3nnn(C)n3)cc2)nc1` [Example 223, 4-(((1S,2S)-2-(5-methoxypyridin-2-yl)cyclopropyl)methoxy)-2-methyl-5-(4-(2-methyl-2H-tetrazol-5-yl)phenyl)pyrimidine], which Ki is on record?
**A.** 2.02 nM

**Q.** With `COc1ccc([C@H]2C[C@@H]2COc2nc(C)ncc2-c2noc(CO)n2)nc1` [Example 256, (3-(4-(((1S,2S)-2-(5-methoxypyridin-2-yl)cyclopropyl)methoxy)-2-methylpyrimidin-5-yl)-1,2,4-oxadiazol-5-yl)methanol] as the compound, how does the Ki read?
**A.** 29.9 nM

**Q.** With `Cc1ccc([C@H]2C[C@@H]2COc2nc(C)ncc2-c2ccc(C(O)C(F)(F)F)nc2)nc1` (stereo partly drawn) [Example 145, 2,2,2-trifluoro-1-(5-(2-methyl-4-(((1S,2S)-2-(5-methylpyridin-2-yl)cyclopropyl)methoxy)pyrimidin-5-yl)pyridin-2-yl)ethanol] as the compound, how does the Ki read?
**A.** 0.54 nM

**Q.** With `COc1ccc([C@H]2C[C@@H]2COc2nc(C)ncc2-c2cn(C)nc2C(O)C(F)(F)F)nc1` (stereo partly drawn) [Example 114, 2,2,2-trifluoro-1-(4-(4-(((1S,2S)-2-(5-methoxypyridin-2-yl)cyclopropyl)methoxy)-2-methylpyrimidin-5-yl)-1-methyl-1H-pyrazol-3-yl)ethanol] as the compound, how does the Ki read?
**A.** 0.93 nM

**Q.** Which Ki does the source give for `Cc1cc(-c2cnc(C)nc2OC[C@H]2C[C@@H]2c2ccc3ccccc3n2)ccn1` [Example 153, 2-((1S,2S)-2-((2-methyl-5-(2-methylpyridin-4-yl)pyrimidin-4-yloxy)methyl)cyclopropyl)quinoline] here?
**A.** 0.01 nM

**Q.** For `COc1ccc([C@H]2C[C@@H]2COc2nc(C)ncc2-c2cc(=O)[nH]n2C)nc1` [Example 238, 5-(4-(((1S,2S)-2-(5-methoxypyridin-2-yl)cyclopropyl)methoxy)-2-methylpyrimidin-5-yl)-1-methyl-1,2-dihydropyrazol-3-one], which Ki is on record?
**A.** 22.9 nM

**Q.** With `CCn1nnc(-c2ccc(-c3cnc(C)nc3OC[C@H]3C[C@@H]3c3ccc(OC)cn3)cn2)n1` [Example 232, 5-(6-(2-ethyl-2H-tetrazol-5-yl)pyridin-3-yl)-4-(((1S,2S)-2-(5-methoxypyridin-2-yl)cyclopropyl)methoxy)-2-methylpyrimidine] as the compound, how does the Ki read?
**A.** 0.77 nM

**Q.** `Cc1ccc([C@H]2C[C@@H]2COc2nc(C)ncc2C2CCCCC2)nc1` [Example 208, 5-Cyclohexyl-2-methyl-4-(((1S,2S)-2-(5-methylpyridin-2-yl)cyclopropyl)methoxy)pyrimidine] was tested. Which Ki did it give?
**A.** 2.28 nM

**Q.** For `COc1ccc([C@H]2C[C@@H]2COc2nc(C)ncc2-c2cn(C)nc2C(F)(F)F)nc1` [Example 82, 4-(((1S,2S)-2-(5-methoxypyridin-2-yl)cyclopropyl)methoxy)-2-methyl-5-(1-methyl-3-(trifluoromethyl)-1H-pyrazol-4-yl)pyrimidine], which Ki is on record?
**A.** 0.2 nM

**Q.** For `COc1ccc([C@H]2C[C@@H]2COc2nc(C)ncc2-c2nnn(C)n2)nc1` [Example 235, 4-(((1S,2S)-2-(5-methoxypyridin-2-yl)cyclopropyl)methoxy)-2-methyl-5-(2-methyl-2H-tetrazol-5-yl)pyrimidine], which Ki is on record?
**A.** 21.5 nM

**Q.** How did the Ki turn out when `Cc1ncc(-c2ccc(CO)cc2)c(OC[C@H]2C[C@@H]2c2ccc3ccccc3n2)n1` (single isomer, unassigned) [Example 39] was run?
**A.** 0.87 nM

**Q.** How did the Ki turn out when `CCc1ccc([C@H]2C[C@@H]2COc2nc(C)ncc2-c2cn(C)nc2C(C)O)nc1` (stereo partly drawn) [Example 163, 1-(4-(4-(((1S,2S)-2-(5-ethylpyridin-2-yl)cyclopropyl)methoxy)-2-methylpyrimidin-5-yl)-1-methyl-1H-pyrazol-3-yl)ethanol] was run?
**A.** 0.24 nM

**Q.** For `CCn1nnc(-c2ccc(-c3cnc(C)nc3OC[C@H]3C[C@@H]3c3ccc(OC)cn3)cc2)n1` [Example 225, 5-(4-(2-ethyl-2H-tetrazol-5-yl)phenyl)-4-(((1S,2S)-2-(5-methoxypyridin-2-yl)cyclopropyl)methoxy)-2-methylpyrimidine], which Ki is on record?
**A.** 1.42 nM

**Q.** Which Ki does the source give for `Cc1ncc(-c2ccc(C(C)(C)O)nc2)c(OC[C@H]2C[C@@H]2c2ncccc2C)n1` (single isomer, unassigned) [Example 173] here?
**A.** 0.51 nM

**Q.** `Cc1ccc([C@H]2C[C@@H]2COc2nc(C)ncc2-c2cn(C)nc2C(F)F)nc1` [Example 125, 5-(3-(difluoromethyl)-1-methyl-1H-pyrazol-4-yl)-2-methyl-4-(((1S,2S)-2-(5-methylpyridin-2-yl)cyclopropyl)methoxy)pyrimidine] was tested. Which Ki did it give?
**A.** 0.4 nM

**Q.** With `CCc1ccc([C@H]2C[C@@H]2COc2nc(C)ncc2-c2cn(C)nc2C(C)O)nc1` (stereo partly drawn) [Example 162, 1-(4-(4-(((1S,2S)-2-(5-ethylpyridin-2-yl)cyclopropyl)methoxy)-2-methylpyrimidin-5-yl)-1-methyl-1H-pyrazol-3-yl)ethanol] as the compound, how does the Ki read?
**A.** 0.13 nM

**Q.** With `Cc1ccc([C@H]2C[C@@H]2COc2nc(C)ncc2-c2cccn3ccnc23)nc1` [Example 135, 8-(2-methyl-4-(((1S,2S)-2-(5-methylpyridin-2-yl)cyclopropyl)methoxy)pyrimidin-5-yl)imidazo[1,2-a]pyridine] as the compound, how does the Ki read?
**A.** 37.3 nM

— US9663513B2, “Pyrimidine PDE10 inhibitors” (Merck Sharp & Dohme Corp., priority 2012, dated 2017)
